Among the data in patent US4761414A, “Substituted 1H-pyrimido[1,2-a-]-pyrido[3,4-e]pyrazine 6 oxides” (G. D. Searle & Co., priority 1986, dated 1988) are MIC, MBC and ED (1 log reduction) values, retold here.

Molecules are shown by their SMILES. Converted amounts (≈) assume the structure as drawn. Read-outs that look alike come from different tables or passages of the source. Some results are limits rather than exact numbers.

A word on the MIC: it is the lowest concentration found to suppress growth. The MBC is the smallest concentration meeting the test's criterion for killing. Lower therefore signals greater bactericidal potency.

The test system of assay [1] is Campylobacter fetus ss. jejuni NCTC 10842. Put plainly: MIC vs panel of anaerobes. The format is cell-based. As to conditions: NCTC10842, procedures of Example 40.
Assay [2] deals with Fusobacterium necrophorum ATCC 11295. The assay is described as follows: MIC vs panel of anaerobes. The format is cell-based. As to conditions: Fusobacterium necrophorum, ATCC11295, Fusobacterium necrophorum ATCC 11295; procedures of Example 40; read-out: MIC.
Assay [3] deals with B. fragilis NCTC 9344. The assay is described as follows: MIC/MBC against Bacteroides fragilis strain C. The format is cell-based. Conditions: for MBC: NCTC9344, 99.9% reduction in viable count; for MIC: NCTC9344, 48 h, 48 hours, 37° C., anaerobic. The procedure: The screening panel utilized in this Example consisted of 5 strains of Bacteroides fragilis. All assays were carried out in 96-well microtitre plates. If an isolate was obtained from either a culture collection or clinical source, the isolate was immediately inoculated into Wilkens-Chalgren broth (Oxoid) and incubated at 37° C. in an anaerobic chamber in an atmosphere of 85% nitrogen, 10% carbon dioxide, and 5% hydrogen for 48 hours. At the end of this time, the viable count was about 10^12 organisms/ml broth. A 1 ml aliquot of each culture was placed in an ampoule and quick frozen in acetone-dry ice mixture and stored in liquid nitrogen. When an inoculum was utilized in an assay, one of the ampoules was thawed and diluted with fresh broth to yield a suspension having a count of 5×10^5 organisms/ml. A 100 μl aliquot of this suspension was inoculated into each well of the microtitre plate. A 2 mg sample of the test compound was dissolved in 0.2 ml of a suitable solvent such as dimethylsulfoxide, polyethylene glycol 200 or methanol. […] After addition of the test solution the final inoculum level was 10^5 cells/ml. The plates were incubated for 48 hours at 37° C. in the anaerobic chamber. The Minimum Inhibitory Concentration (MIC) was read visually. The MIC is defined as the lowest concentration at which there is no detectable growth. The Minimum Bactericidal Concentration (MBC) was determined by taking 50 μl aliquot from each well and placing it in fresh medium. […] The strains of Bacteroides fragilis utilized in the above procedure are identified by letter in accordance with the following legend: |C B. fragilis NCTC 9344

Assay [4] concerns B. fragilis 23745. As to conditions: Bacteroides fragilis, 23745, in Mus musculus, po, 48 h, log CFU/ml liver homogenate, test compound.
The test system of assay [5] is Peptococcous magnus. Put plainly: MIC vs panel of anaerobes. The format is cell-based. Conditions: procedures of Example 40.
In assay [6] the test system is B. melanogenicus ATCC 15032. Put plainly: MIC vs panel of anaerobes. The format is cell-based. Conditions: procedures of Example 40.
In assay [7] the test system is Propionebacterium acnes NCTC 737. Put plainly: MIC vs panel of anaerobes. The assay is classed as cell-based. As to conditions: procedures of Example 40.
The subject of assay [8] is P. anaerobius. The assay is described as follows: MIC vs panel of anaerobes. The assay is classed as cell-based. Conditions: Peptostreptococcus anaerobius, procedures of Example 40.
Assay [9] deals with Costridium difficile NCIB 10666. Put plainly: MIC vs panel of anaerobes. The format is cell-based, C. difficile. As to conditions: Clostridioides difficile, NCIB10666, C. difficile NCIB 10666; procedures of Example 40; read-out: MIC.
In assay [10] the test system is Campylobacter fetus ss. jejuni ATCC 29428. The assay is described as follows: MIC vs panel of anaerobes. Conditions: ATCC29428, procedures of Example 40. The format is cell-based.
[11] abbreviates: read-out: DOSE GIVING 1 LOG REDUCTION (molar), p.o., after infection and twice daily for 2 days.
The mark [12] stands for this setting: read-out: DOSE GIVING 1 LOG REDUCTION, p.o., after infection and twice daily for 2 days.

For `Cc1ccc(C2=[N+]([O-])c3cnccc3N3CC(C)(C)CN=C23)cc1` [Example 19, 2,3-Dihydro-2,2-dimethyl-5-(4-methylphenyl)-1H-pyrimido[1,2-a]pyrido[3,4-e]pyrazine 6-oxide], the MIC was 6.2 µg/mL (≈ 19.4 µM) in [1], under 0.8 µg/mL in assay [2], under 0.8 µg/mL in assay [3] and under 0.8 µg/mL in assay [5]. In [3], the MBC is under 0.8 µg/mL. For the same compound, the ED (1 log reduction) in assay [4] (setting [11]) is 4.6 µmol/kg; in assay [4] (setting [12]), 1.5 mg/kg.

In assay [3], `COc1ccc(C2=[N+]([O-])c3cnccc3N3CC(C)(C)CN=C23)cc1OC` [Example 21] yielded an MBC of 1.5 µg/mL (≈ 4.09 µM) and an MIC of under 0.8 µg/mL. Moreover, the ED (1 log reduction) in assay [4] (setting [11]) stood at 6.8 µmol/kg. The ED (1 log reduction) in assay [4] (setting [12]) came out at 2.5 mg/kg.

As for `CCC1(C)CN=C2C(c3ccccc3)=[N+]([O-])c3cnccc3N2C1` (stereo not shown) [Example 23, 2,3-Dihydro-2-ethyl-2-methyl-5-phenyl-1H-pyrimido[1,2-a]pyrido[3,4-e]pyrazine 6-oxide], the MIC in assay [1] is 100 µg/mL (≈ 312 µM); in [2], under 0.8 µg/mL; in assay [6] it was over 100 µg/mL; in assay [3], under 0.8 µg/mL; in [7], over 100 µg/mL; in [8], 100 µg/mL (≈ 312 µM). Also, the MIC in assay [9] was found to be 1.5 µg/mL (≈ 4.68 µM); in [10], 100 µg/mL (≈ 312 µM). Also, in assay [3], the MBC is under 0.8 µg/mL. For the same compound, the ED (1 log reduction) in [4] (setting [11]) came out at 6 µmol/kg; in assay [4] (setting [12]) it was 1.9 mg/kg.

For the compound `CCC1(C)CN=C2C(c3ccccc3)=[N+]([O-])c3cccnc3N2C1` (stereo not shown) [Example 24, 2,3-Dihydro-2-ethyl-2-methyl-5-phenyl-1H-pyrimido[1,2-a]pyrido[3,2-e]pyrazine 6-oxide], the MIC in assay [1] was 100 µg/mL (≈ 312 µM); in [2], under 0.8 µg/mL; in [6] it was 100 µg/mL (≈ 312 µM); in [3], under 0.8 µg/mL; in [7] it was 100 µg/mL (≈ 312 µM); in [8] it was 100 µg/mL (≈ 312 µM). For the same compound, the MIC in assay [9] was under 0.8 µg/mL; in [10], 50 µg/mL (≈ 156 µM). Further, the MBC in [3] is under 0.8 µg/mL. Besides, the ED (1 log reduction) was 6.8 µmol/kg in assay [4] (setting [11]) and 2.2 mg/kg in assay [4] (setting [12]).

With `CCC1(CC)CN=C2C(c3ccccc3)=[N+]([O-])c3cnccc3N2C1` [Example 25, 2,3-Dihydro-2,2-diethyl-5-phenyl-1H-pyrimido[1,2-a]pyrido[3,4-e]pyrazine 6-oxide], the MIC in assay [1] was 6.2 µg/mL (≈ 18.5 µM); in assay [2] it was 31 µg/mL (≈ 92.7 µM); in [6], over 100 µg/mL; in assay [3], 1.5 µg/mL (≈ 4.49 µM); in [7], over 100 µg/mL; in assay [5], 100 µg/mL (≈ 299 µM). Besides, the minimum inhibitory concentration (MIC) turned out to be 100 µg/mL (≈ 299 µM) in assay [8], 1.5 µg/mL (≈ 4.49 µM) in assay [9] and 100 µg/mL (≈ 299 µM) in assay [10]. In [3], this compound registered an MBC of 1.5 µg/mL (≈ 4.49 µM). Further, the ED (1 log reduction) in [4] (setting [11]) was determined as 5.75 µmol/kg; in assay [4] (setting [12]) it was 1.9 mg/kg.

`CCC1(CC)CN=C2C(c3ccccc3)=[N+]([O-])c3cccnc3N2C1` [Example 26, 2,3-Dihydro-2,2-diethyl-5-phenyl-1H-pyrimido[1,2-a]pyrido[3,2-e]pyrazine 6-oxide]: the MIC is 25 µg/mL (≈ 74.8 µM) in [1]; 1.5 µg/mL (≈ 4.49 µM) in assay [2]; 100 µg/mL (≈ 299 µM) in [6]; under 0.8 µg/mL in [3]; 100 µg/mL (≈ 299 µM) in assay [7]; 12.5 µg/mL (≈ 37.4 µM) in [5]. For the same compound, the MIC in assay [8] was 50 µg/mL (≈ 150 µM); in assay [9], under 0.8 µg/mL; in assay [10] it was 50 µg/mL (≈ 150 µM). In assay [3], the MBC is under 0.8 µg/mL. Also, the ED (1 log reduction) was 10.1 µmol/kg in assay [4] (setting [11]) and 3.4 mg/kg in assay [4] (setting [12]).

For the compound `CCCC1(C)CN=C2C(c3ccccc3)=[N+]([O-])c3cnccc3N2C1` (stereo not shown) [Example 27, 2,3-Dihydro-2-methyl-5-phenyl-2-propyl-1H-pyrimido[1,2-a]pyrido[3,4-e]pyrazine 6-oxide], in [3], the MBC was under 0.8 µg/mL and the MIC was under 0.8 µg/mL. Also, the ED (1 log reduction) in assay [4] (setting [11]) is 7.4 µmol/kg. Also, the ED (1 log reduction) in [4] (setting [12]) was found to be 2.5 mg/kg.

Consider `CCCC1(C)CN=C2C(c3ccccc3)=[N+]([O-])c3cccnc3N2C1` (stereo not shown) [Example 28, 2,3-Dihydro-2-methyl-5-phenyl-2-propyl-1H-pyrimido[1,2-a]pyrido[3,2-e]pyrazine 6-oxide], for which, in [3], the MBC is under 0.8 µg/mL and the MIC is under 0.8 µg/mL. Besides, in assay [4] (setting [11]), the ED (1 log reduction) worked out at 7.4 µmol/kg. For the same compound, the ED (1 log reduction) in [4] (setting [12]) came to 2.5 mg/kg.

On to `[O-][N+]1=C(c2ccccc2)C2=NCC3(CCCCC3)CN2c2ncccc21` [Example 29, Spiro[cyclohexane-1,2'-[2,3]-dihydro-[5]-phenyl-[1H]pyrimido[1,2-a]pyrido[3,2-e]pyrazine [6]-oxide]], for which the minimal inhibitory concentration (MIC) was 100 µg/mL (≈ 289 µM) in assay [1]; 6.2 µg/mL (≈ 17.9 µM) in [2]; 100 µg/mL (≈ 289 µM) in assay [6]; under 0.8 µg/mL in assay [3]; over 100 µg/mL in assay [7]; under 0.8 µg/mL in assay [5]. Also, the minimum inhibitory concentration (MIC) in assay [8] was under 0.8 µg/mL; in assay [9] it was under 0.8 µg/mL; in assay [10], 50 µg/mL (≈ 144 µM). The same compound had an MBC in assay [3] of under 0.8 µg/mL. Also, the ED (1 log reduction) in assay [4] (setting [11]) is 10.1 µmol/kg; in assay [4] (setting [12]), 3.5 mg/kg.

Consider `[O-][N+]1=C(c2ccccc2)C2=NCC3(CCCCC3)CN2c2ccncc21` [Example 30, Spiro[cyclohexane-1,2'-[2,3]-dihydro-[5]-phenyl-[1H]pyrimido[1,2-a]pyrido[3,4-e]pyrazine [6]-oxide]], for which the MIC in [1] is 100 µg/mL (≈ 289 µM); in assay [2] it was 3.1 µg/mL (≈ 8.95 µM); in assay [6] it was over 100 µg/mL; in assay [3] it was under 0.8 µg/mL; in assay [7], over 100 µg/mL; in assay [8], 100 µg/mL (≈ 289 µM). Also, the results for the MIC in [9] and in assay [10] were under 0.8 µg/mL and 100 µg/mL (≈ 289 µM), respectively. For the same compound, in assay [3], the MBC was under 0.8 µg/mL.

For `CC1(C)CN=C2C(c3ccc(F)cc3)=[N+]([O-])c3cccnc3N2C1` [Example 31, 2,3-Dihydro-2,2-dimethyl-5-(4-fluorophenyl)-1H-pyrimido[1,2-a]pyrido[3,2-e]pyrazine 6-oxide], the MIC in assay [1] was 50 µg/mL (≈ 154 µM); in assay [2], 3.1 µg/mL (≈ 9.56 µM); in assay [6] it was over 100 µg/mL; in assay [3], under 0.8 µg/mL; in assay [7], over 100 µg/mL; in [8], 100 µg/mL (≈ 308 µM). Moreover, the MIC was under 0.8 µg/mL in assay [9] and 100 µg/mL (≈ 308 µM) in [10]. Further, in [3], the minimum bactericidal concentration (MBC) was under 0.8 µg/mL. For the same compound, the ED (1 log reduction) in [4] (setting [11]) was 3 µmol/kg; in [4] (setting [12]), 1 mg/kg.

Regarding `CC1CN=C2C(c3ccccc3)=[N+]([O-])c3cccnc3N2C1` (stereo not shown) [Example 32, 2,3-Dihydro-2-methyl-5-phenyl-1H-pyrimido[1,2-a]pyrido[3,2-e]pyrazine 6-oxide], the MIC in [1], in assay [2], in assay [3] and in assay [5] was under 0.8 µg/mL throughout. Further, the MBC in assay [3] was under 0.8 µg/mL. The ED (1 log reduction) in [4] (setting [11]) is 3.3 µmol/kg; in [4] (setting [12]) it was 0.95 mg/kg.

In assay [3], `CC1(C)CN=C2C(c3ccc(F)cc3)=[N+]([O-])c3cnccc3N2C1` [Example 33, 2,3-Dihydro-2,2-dimethyl-5-(4-fluorophenyl)-1H-pyrimido[1,2-a]pyrido[3,4-e]pyrazine 6-oxide] yielded a minimal bactericidal concentration (MBC) of under 0.8 µg/mL and an MIC of under 0.8 µg/mL. Further, the ED (1 log reduction) in assay [4] (setting [11]) was 2.85 µmol/kg. Also, the ED (1 log reduction) in assay [4] (setting [12]) is 0.9 mg/kg.

In turn, `CC1CN=C2C(c3ccccc3)=[N+]([O-])c3cnccc3N2C1` (stereo not shown) [Example 34, 2,3-Dihydro-2-methyl-5-phenyl-1H-pyrimido[1,2-a]pyrido[3,4-e]pyrazine 6-oxide] registered an MBC in assay [3] of under 0.8 µg/mL. In assay [3], the MIC is under 0.8 µg/mL. The ED (1 log reduction) is 9.3 µmol/kg in assay [4] (setting [11]) and 2.7 mg/kg in [4] (setting [12]).
